Measurements: ChEMBL document CHEMBL1201862, “PubChem BioAssay data set” (2004)
Calls of active or inactive are those of the source.

What was measured:
Cytochrome P450 2C19 = Cytochrome P450 2C19 (Homo sapiens, UniProt P33261); assay: Cytochrome panel assay with activity outcomes. Panel member name: p450-cyp2c19 Compounds with AC50 equal or less than 10 uM are considered active; format: functional; conditions: read-out: AC50
Cytochrome P450 2D6 = Cytochrome P450 2D6 (Homo sapiens, UniProt P10635);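 also: CYP2D6 member of a cytochrome P450 panel assay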
[1] = molecular target: Eukaryotic translation initiation factor 4E (Mus musculus, UniProt P63073); assay: blockers of eIF4G binding by eIF4E – biochemical, TR-FRET, dose response (AID 855); format: functional;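 also: potency for disrupting eIF4E binding to eIF4GI seen as loss of FRET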
Cytochrome P450 3A4 = Cytochrome P450 3A4 (Homo sapiens, UniProt P08684); conditions: Potency;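 also: confirmatory qHTS run detecting inhibitors and substrates of CYP3A4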
Large T antigen = Large T antigen (Simian virus 40, UniProt P03070); format: functional, Betapolyomavirus macacae;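 also: Confirmatory-stage PubChem screen for compounds that inhibit SV40 T antigen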
[2] = molecular target: T1, Calpain-2 catalytic subunit (Sus scrofa, UniProt P43367); assay: m-calpain protease blockers, concentration series – biochemical, fluorogenic peptide substrate, dose response (AID 1420); format: functional
T1 sequence (P43367 whole entry): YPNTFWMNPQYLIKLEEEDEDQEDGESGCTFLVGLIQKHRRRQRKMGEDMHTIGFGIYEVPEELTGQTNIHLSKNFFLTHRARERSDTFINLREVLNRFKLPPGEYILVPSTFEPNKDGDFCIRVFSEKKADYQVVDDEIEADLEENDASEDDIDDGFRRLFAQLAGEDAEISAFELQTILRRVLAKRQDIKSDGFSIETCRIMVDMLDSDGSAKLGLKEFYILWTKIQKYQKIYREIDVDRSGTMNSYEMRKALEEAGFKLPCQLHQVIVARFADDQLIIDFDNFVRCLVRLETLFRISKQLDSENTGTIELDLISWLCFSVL

[3] = molecular target: T2, RNA-binding protein pos-1 (Caenorhabditis elegans, UniProt G5EF15); assay: disruptors of C. elegans POS-1 RNA interaction – biochemical, fluorescence polarization, dose response (AID 1964);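 also: purified POS-1 fused to maltose binding protein made in E. coli; potency of compounds blocking POS-1 binding to fluorescent RNA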
T2 sequence (G5EF15 whole entry): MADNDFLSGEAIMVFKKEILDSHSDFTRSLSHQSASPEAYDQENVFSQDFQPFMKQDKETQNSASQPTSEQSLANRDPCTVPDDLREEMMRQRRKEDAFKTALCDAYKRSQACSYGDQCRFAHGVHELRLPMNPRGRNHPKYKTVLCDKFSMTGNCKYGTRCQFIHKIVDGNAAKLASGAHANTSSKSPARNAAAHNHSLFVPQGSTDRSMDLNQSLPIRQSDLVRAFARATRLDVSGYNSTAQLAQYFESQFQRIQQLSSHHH

[4] = molecular target: T3, Zinc finger protein mex-5 (Caenorhabditis elegans, UniProt Q9XUB2); assay: potency of MEX-5 RNA-binding blockers – biochemical, C. elegans, fluorescence polarization, dose response (AID 1960)
T3 sequence (Q9XUB2 whole entry): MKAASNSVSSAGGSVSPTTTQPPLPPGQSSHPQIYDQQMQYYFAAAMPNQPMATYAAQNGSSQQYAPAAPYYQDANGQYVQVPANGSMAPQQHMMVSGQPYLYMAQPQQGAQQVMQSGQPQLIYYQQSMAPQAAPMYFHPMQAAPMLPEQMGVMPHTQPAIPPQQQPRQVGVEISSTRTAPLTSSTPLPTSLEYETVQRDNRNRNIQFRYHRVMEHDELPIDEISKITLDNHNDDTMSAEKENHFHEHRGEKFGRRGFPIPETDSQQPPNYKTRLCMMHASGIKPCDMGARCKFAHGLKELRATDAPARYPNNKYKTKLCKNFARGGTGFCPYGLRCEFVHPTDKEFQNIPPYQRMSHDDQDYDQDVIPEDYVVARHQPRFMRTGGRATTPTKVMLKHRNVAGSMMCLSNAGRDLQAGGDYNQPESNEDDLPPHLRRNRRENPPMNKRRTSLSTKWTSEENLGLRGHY

BJ [5] = assay: BJ-TERT fibroblast viability loss – cell-based, RAS-independent, luminescence, dose response (AID 1933); format: functional; conditions: Homo sapiens
BJ [6] = assay: cells; format: functional, cell-based; conditions: Homo sapiens
BJ [7] = assay: BJ-TERT-LT-ST fibroblast viability loss – cell-based, RAS-independent, luminescence, dose response (AID 1935); format: functional; conditions: Homo sapiens;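 also: BJ fibroblasts immortalized with TERT plus LT and ST oncogenes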
[8] = DRD fibroblast viability loss – cell-based, non-viral oncogenic, luminescence, dose response (AID 1934); format: functional; conditions: Homo sapiens
[9] = molecular target: Luciferin 4-monooxygenase (Photinus pyralis, UniProt P08659); assay: inhibition of purified Photinus pyralis luciferase – biochemical, luminescence, dose response (AID 1891)
[10] = Luminescence Cell-Based Dose Confirmation HTS to Identify Inhibitors of Platelet Dense Granule Release. [Related pubchem assays: 1663 (Primary HTS), 1678 (Summary of Project)]; format: functional
Cytochrome P450 2C9 = Cytochrome P450 2C9 (Homo sapiens, UniProt P11712)
Sequence of Cytochrome P450 2C9 (P11712 whole entry): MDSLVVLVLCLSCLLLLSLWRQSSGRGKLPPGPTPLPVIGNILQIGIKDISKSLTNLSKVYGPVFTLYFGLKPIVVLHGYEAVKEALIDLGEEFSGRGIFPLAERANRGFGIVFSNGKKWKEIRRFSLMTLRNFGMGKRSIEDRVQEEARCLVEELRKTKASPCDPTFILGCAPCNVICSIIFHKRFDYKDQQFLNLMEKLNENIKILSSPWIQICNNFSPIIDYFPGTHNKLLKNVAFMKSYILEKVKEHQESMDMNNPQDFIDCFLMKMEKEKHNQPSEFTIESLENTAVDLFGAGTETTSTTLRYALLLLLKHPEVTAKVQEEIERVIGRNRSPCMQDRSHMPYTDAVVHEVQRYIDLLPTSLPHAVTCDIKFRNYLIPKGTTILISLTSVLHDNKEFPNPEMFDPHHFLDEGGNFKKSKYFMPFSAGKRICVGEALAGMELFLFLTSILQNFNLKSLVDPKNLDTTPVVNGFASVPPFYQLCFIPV

Sequence of Cytochrome P450 3A4 (P08684 whole entry): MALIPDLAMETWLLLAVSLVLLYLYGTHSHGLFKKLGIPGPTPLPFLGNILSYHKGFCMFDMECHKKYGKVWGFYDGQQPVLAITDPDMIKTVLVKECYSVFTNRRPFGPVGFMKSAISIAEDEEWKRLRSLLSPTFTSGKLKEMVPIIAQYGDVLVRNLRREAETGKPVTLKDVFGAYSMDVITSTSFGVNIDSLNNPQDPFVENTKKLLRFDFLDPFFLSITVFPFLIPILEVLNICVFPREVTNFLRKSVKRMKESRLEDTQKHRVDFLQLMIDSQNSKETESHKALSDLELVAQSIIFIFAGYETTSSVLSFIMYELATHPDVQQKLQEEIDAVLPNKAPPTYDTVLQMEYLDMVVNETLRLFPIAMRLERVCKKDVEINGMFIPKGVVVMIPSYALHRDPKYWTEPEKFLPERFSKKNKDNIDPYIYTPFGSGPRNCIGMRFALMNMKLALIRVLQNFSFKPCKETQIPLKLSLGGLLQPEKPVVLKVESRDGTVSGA
Sequence of Eukaryotic translation initiation factor 4E (P63073 whole entry): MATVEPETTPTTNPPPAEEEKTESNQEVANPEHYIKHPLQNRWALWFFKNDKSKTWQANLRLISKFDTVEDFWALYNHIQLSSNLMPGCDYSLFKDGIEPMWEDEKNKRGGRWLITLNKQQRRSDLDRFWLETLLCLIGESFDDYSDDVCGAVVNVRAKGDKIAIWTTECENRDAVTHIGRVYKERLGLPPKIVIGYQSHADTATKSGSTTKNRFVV
Sequence of Cytochrome P450 2D6 (P10635 whole entry): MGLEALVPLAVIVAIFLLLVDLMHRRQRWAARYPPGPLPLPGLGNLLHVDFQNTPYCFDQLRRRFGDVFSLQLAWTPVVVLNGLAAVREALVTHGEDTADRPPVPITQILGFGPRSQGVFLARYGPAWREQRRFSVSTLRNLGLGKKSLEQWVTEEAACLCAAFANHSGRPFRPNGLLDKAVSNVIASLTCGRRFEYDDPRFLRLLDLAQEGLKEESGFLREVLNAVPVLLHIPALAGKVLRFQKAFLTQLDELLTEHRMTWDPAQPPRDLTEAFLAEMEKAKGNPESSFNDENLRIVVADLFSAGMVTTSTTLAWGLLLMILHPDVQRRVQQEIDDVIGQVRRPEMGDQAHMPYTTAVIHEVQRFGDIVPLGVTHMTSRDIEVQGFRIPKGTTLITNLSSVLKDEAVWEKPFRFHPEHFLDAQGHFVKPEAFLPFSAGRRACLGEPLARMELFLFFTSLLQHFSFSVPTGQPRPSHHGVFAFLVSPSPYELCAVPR
Sequence of Large T antigen (P03070 whole entry): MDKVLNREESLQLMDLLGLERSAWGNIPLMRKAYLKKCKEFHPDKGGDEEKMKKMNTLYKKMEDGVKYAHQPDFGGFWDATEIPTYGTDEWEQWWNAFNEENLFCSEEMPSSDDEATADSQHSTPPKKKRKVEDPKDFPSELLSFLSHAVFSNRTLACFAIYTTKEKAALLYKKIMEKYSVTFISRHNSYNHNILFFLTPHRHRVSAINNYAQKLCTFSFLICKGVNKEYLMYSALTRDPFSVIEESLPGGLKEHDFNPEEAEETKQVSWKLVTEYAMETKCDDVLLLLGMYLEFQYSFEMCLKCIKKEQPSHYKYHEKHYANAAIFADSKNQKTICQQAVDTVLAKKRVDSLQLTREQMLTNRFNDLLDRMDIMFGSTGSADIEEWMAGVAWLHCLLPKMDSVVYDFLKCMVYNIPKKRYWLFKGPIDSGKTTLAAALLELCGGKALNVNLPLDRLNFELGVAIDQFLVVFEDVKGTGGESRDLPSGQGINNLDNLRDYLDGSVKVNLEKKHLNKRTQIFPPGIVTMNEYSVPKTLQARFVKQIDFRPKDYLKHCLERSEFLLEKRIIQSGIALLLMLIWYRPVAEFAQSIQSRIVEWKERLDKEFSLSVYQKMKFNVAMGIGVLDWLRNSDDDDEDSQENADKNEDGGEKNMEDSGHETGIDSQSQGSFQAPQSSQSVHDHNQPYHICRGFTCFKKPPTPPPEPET
Sequence of Cytochrome P450 2C19 (P33261 whole entry): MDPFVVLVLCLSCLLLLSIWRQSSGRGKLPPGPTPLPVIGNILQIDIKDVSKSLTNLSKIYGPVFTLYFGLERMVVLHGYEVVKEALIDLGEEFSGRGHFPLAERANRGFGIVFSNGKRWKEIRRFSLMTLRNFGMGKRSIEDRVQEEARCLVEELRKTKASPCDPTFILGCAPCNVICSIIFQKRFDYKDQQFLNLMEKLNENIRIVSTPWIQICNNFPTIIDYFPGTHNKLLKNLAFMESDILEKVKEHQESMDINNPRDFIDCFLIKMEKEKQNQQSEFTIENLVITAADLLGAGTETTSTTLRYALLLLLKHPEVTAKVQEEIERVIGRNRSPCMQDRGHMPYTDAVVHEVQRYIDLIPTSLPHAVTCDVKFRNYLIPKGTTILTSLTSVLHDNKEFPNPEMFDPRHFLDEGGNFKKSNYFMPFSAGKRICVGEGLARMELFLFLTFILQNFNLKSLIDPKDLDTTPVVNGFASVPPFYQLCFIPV
Sequence of Luciferin 4-monooxygenase (P08659 whole entry): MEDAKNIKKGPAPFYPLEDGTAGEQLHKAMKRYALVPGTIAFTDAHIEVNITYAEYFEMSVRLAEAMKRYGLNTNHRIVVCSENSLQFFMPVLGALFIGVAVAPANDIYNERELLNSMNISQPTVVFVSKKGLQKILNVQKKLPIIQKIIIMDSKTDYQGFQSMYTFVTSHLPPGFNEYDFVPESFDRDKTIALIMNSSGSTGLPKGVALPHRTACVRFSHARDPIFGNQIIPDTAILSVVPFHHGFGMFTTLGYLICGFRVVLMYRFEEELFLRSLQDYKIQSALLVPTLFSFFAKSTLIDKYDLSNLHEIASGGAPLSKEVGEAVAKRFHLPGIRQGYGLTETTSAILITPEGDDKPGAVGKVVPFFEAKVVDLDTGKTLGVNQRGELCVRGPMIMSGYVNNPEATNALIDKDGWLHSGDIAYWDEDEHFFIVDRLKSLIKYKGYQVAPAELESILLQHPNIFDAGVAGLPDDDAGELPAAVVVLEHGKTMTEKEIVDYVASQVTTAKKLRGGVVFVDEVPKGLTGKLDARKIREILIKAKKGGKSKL

With `CN(C)c1ccc2nc3c(C(=O)O)cc(=O)c(O)c-3oc2c1` the AC50 (Cytochrome P450 2C19) was 2.51 µM (inconclusive) and the AC50 (Cytochrome P450 2D6) was 3.16 µM (inconclusive).
In the case of `Cc1cc(NC(=O)c2noc3c2CCc2ccccc2-3)n(-c2ccccc2)n1`, the IC50 [1] is reported as > 64 µM (inactive).
For `COC(=O)c1ccc(C23CC4(C2)[C@H](CN(CC2CCCCC2)[C@@H]4c2ccccc2)C3c2ccc(C(F)(F)F)cc2)cc1` (stereo not given in full), the AC50 (Cytochrome P450 3A4) was 15.8 µM (inconclusive).
With `CN(C)c1ccc(NC(N)=S)cc1` the IC50 (Large T antigen) was 7.29 µM (active).
In the case of `Cc1nn(Cc2ccc(Cl)cc2Cl)c(C)c1NC(=O)c1nn(C)cc1Cl`, the IC50 [2] is reported as 0.917 µM (not active).
For `CCOc1ccc(N2C(=O)/C(=C/c3ccc(C)o3)C(=O)NC2=S)cc1`, the EC50 [3] was > 300 µM (not active), the EC50 [4] was > 300 µM (not active) and the IC50 (Large T antigen) was 49.9 µM (active).
For `Cc1ccc([N+](=O)[O-])cc1NC(=O)C[n+]1ccccc1`, the IC50 [2] was > 50 µM (not active).
In the case of `Cc1noc(C)c1-c1nc(Nc2ccncc2)c2ccccc2n1`, the AC50 (Cytochrome P450 2C19) is reported as 31.6 µM (inconclusive) and the AC50 (Cytochrome P450 2D6) is reported as 12.6 µM (inconclusive).
In the case of `CC(=O)N1CC=CC1(CC(C)C)C(=O)NCc1ccccn1` (stereo not given), the AC50 (Cytochrome P450 3A4) is reported as 20 µM (inconclusive).
With `Cc1cc(N2CCN(Cc3cn(C)nc3-c3ccccc3F)CC2)cc(C)n1` the EC50 (BJ [5]) was 10.1 µM (active), the EC50 (BJ [6]) was 101 µM (inconclusive) and the EC50 (BJ [7]) was 14.9 µM (active). For the same compound, the EC50 [8] was 16.3 µM (inconclusive).
In the case of `COc1ccccc1CNc1nc(-c2cc(C)n(C)c2C)cs1`, the IC50 [1] is reported as 50 µM (inactive).
In the case of `Cn1nccc1C(=O)Nc1ccc(Cl)cc1`, the AC50 (Cytochrome P450 2D6) is reported as 0.282 µM (inconclusive).
With `O=C(Oc1ccc(=O)n(-c2ccccc2)n1)c1cccc(Cl)c1` the IC50 [1] was > 64 µM (inactive).
In the case of `COc1cc(NC(=O)c2ccccc2)c(OC)cc1NC(=O)CSc1nc(O)cc(C)c1C#N`, the EC50 (BJ [5]) is reported as 73.6 µM (inconclusive), the EC50 (BJ [6]) is reported as 36 µM (inconclusive) and the EC50 [9] is reported as > 112 µM (not active). For the same compound, the EC50 [10] was 1.21 µM (active), the EC50 (BJ [7]) was > 150 µM (not active) and the EC50 [8] was 34.7 µM (active).
With `CCCn1c(C)nc2c(NCc3ccccc3)nc(C)nc21` the AC50 (Cytochrome P450 3A4) was 15.8 µM (inconclusive).
For `c1cc2c3c(c1)ccc1cccc(c13)C2`, the AC50 (Cytochrome P450 3A4) was 25.1 µM (inconclusive).
In the case of `CN1CCN(c2cc(N3CCCC3)c([N+](=O)[O-])cc2F)CC1`, the AC50 (Cytochrome P450 2D6) is reported as 14.1 µM (inconclusive) and the AC50 (Cytochrome P450 2C9) is reported as 0.1 µM (inconclusive).
